Calls of active or inactive are those of the source.
Legend:
[1] = target: T1, Runt-related transcription factor 1/Core-binding factor subunit beta (Homo sapiens, UniProt Q01196+Q13951); test: disruptors of Runt domain/CBFb-SMMHC interaction – biochemical, FRET, Cerulean-Runt, Venus-CBFb-SMMHC, uHTS, […] (AID 1434); type: protein assay
[2] = target: T1, Runt-related transcription factor 1/Core-binding factor subunit beta; test: Runt domain/CBFb-SMMHC interaction disruptors – biochemical, TR-FRET (AID 1438); type: protein assay
Aminopeptidase N = target: T2, Aminopeptidase N (Plasmodium falciparum FcB1/Columbia, UniProt O96935); test: malaria alanyl aminopeptidase activity blockers – biochemical, fluorogenic H-Leu-NHMec substrate, 1536-well (AID 1445); set-up: species or system Plasmodium falciparum 3D7, 3D7
T2 sequence (O96935 whole entry): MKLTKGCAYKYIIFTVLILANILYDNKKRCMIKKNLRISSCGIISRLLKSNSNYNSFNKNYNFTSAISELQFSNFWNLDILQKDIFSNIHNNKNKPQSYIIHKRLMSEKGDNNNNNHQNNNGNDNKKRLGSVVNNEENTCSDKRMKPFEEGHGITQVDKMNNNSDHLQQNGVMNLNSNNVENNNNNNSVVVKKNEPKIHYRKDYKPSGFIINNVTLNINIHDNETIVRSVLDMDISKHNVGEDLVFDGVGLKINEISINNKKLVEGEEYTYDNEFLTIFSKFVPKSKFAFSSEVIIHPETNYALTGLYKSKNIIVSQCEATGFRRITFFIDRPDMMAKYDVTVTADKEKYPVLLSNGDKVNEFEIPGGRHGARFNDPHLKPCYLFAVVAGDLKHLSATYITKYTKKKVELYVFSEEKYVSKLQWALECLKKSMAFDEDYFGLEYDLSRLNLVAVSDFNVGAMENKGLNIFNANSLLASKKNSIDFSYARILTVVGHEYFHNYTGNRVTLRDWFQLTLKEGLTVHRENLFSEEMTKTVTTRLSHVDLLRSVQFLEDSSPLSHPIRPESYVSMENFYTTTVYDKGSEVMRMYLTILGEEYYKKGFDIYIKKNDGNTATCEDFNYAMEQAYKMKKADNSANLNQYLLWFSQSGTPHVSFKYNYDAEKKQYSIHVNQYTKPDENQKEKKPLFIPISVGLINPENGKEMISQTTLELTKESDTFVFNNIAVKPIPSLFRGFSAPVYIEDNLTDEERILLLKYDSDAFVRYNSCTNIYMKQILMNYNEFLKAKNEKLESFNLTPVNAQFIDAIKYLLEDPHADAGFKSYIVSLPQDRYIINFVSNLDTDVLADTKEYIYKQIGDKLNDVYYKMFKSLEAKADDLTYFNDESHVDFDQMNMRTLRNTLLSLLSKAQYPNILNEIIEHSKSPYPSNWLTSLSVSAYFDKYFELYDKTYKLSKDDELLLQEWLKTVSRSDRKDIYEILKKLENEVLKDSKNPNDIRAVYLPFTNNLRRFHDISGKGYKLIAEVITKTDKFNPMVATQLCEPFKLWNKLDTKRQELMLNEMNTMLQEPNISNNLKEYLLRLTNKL

[3] = target: T3, High affinity choline transporter 1 (Homo sapiens, UniProt Q9GZV3); test: human choline transporter blockers, potency – cell-based, 5-point CRC, membrane potential dye, dose response (AID 504840); type: functional
T3 sequence (Q9GZV3 whole entry): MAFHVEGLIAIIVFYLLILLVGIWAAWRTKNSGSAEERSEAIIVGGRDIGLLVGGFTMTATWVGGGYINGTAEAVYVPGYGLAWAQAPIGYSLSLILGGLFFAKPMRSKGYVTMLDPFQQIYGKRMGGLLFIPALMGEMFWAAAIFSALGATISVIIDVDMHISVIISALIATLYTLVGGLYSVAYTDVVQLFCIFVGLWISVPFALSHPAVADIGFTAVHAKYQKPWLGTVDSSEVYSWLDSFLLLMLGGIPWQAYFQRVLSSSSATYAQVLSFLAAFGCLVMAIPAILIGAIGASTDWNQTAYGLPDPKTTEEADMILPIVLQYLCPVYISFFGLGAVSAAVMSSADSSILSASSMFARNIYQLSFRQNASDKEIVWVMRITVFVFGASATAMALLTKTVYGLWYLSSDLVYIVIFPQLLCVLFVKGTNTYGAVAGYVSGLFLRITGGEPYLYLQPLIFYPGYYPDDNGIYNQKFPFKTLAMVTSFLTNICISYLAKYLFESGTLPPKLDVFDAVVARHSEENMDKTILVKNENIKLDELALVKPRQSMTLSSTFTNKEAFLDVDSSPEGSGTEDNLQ

[4] = target: Intestinal-type alkaline phosphatase (Homo sapiens, UniProt P09923); test: human intestinal alkaline phosphatase activators, dose response, biochemical, luminescence, uHTS hits (AID 463120); type: functional
Mucolipin-3 = target: T4, Mucolipin-3 (Homo sapiens, UniProt Q8TDD5); test: Fluorescence counterscreen assay for […] agonists: dose response cell-based high-throughput screening assay to identify agonists of the transient receptor potential channel ML3 (TRPML3). [Related pubchem assays: 1424, 1448 ]; type: functional
T4 sequence (Q8TDD5 whole entry): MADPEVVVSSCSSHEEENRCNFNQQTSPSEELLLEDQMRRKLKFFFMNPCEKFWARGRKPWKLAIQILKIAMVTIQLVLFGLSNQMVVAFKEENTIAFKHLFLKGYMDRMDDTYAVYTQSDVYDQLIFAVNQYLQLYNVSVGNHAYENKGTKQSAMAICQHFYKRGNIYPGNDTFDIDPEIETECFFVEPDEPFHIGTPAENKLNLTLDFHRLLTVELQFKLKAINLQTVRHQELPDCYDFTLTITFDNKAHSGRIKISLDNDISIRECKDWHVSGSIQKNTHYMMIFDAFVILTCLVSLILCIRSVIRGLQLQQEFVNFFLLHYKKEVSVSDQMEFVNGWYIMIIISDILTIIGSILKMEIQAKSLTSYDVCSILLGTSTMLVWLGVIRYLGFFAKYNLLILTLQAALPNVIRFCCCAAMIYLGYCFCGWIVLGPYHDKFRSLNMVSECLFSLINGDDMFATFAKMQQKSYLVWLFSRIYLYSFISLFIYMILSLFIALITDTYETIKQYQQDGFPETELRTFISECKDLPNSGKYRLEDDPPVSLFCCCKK

Ion channel NompC = Ion channel NompC (Danio rerio, UniProt Q7T1G6); test: Dose response cell-based high-throughput screening assay for agonists of the transient receptor potential channel N1 (TRPN1). [Related pubchem assays (depositor defined):AID1424, AID1448]; type: functional
[5] = target: T5, Ubiquitin-conjugating enzyme E2 N (Homo sapiens, UniProt P61088); type: functional
T5 sequence (P61088 whole entry): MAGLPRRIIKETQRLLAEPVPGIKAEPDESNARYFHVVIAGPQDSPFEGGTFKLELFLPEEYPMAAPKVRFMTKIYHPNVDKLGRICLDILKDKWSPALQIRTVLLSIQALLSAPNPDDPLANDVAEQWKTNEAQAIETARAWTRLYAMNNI

Bcl-2-related protein A1 = target: T6, Bcl-2-related protein A1 (Mus musculus, UniProt Q07440); type: functional;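 note: confirmatory dose–response counterscreen on Bfl-1, used to check hits from a UBC13 polyubiquitin inhibitor campaign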
T6 sequence (Q07440 whole entry): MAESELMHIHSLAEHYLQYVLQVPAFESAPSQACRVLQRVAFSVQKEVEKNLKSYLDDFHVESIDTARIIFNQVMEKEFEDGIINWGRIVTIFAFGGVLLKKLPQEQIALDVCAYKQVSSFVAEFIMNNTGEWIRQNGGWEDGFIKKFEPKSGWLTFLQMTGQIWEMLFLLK

[6] = target: T5, Ubiquitin-conjugating enzyme E2 N; type: functional; remark: listed apart in the source
Fatty acid synthase [7] = target: T7, Fatty acid synthase (Homo sapiens, UniProt P49327); test: inhibition of human FAS-TE enzyme activity – biochemical, kinetic fluorescence intensity, dose response (AID 624326); type: functional;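 note: rate of fluorescence rise from hydrolysis of a fluorogenic O-methyl fluorescein ester substrate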
Fatty acid synthase [8] = target: T7, Fatty acid synthase; test: inhibition of human FAS-TE enzyme activity – biochemical, endpoint fluorescence intensity, uHTS hits, dose response (AID 624327); type: functional;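 note: fluorescence from hydrolysis of an O-methyl fluorescein acyl ester substrate by the enzyme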
[9] = target: Protein phosphatase methylesterase 1 (Homo sapiens, UniProt Q9Y570); test: inhibition of PME-1 probe labeling – gel-based ABPP, IC50, set 1, late-stage follow-up (AID 463130); type: functional
Coagulation factor XII = Coagulation factor XII (Homo sapiens, UniProt P00748); type: functional;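 note: activated factor XIIa alpha cleaving a fluorogenic AMC peptide substrate; inhibitor potency from loss of enzyme activity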
Cannabinoid receptor 2 [10] = target: T8, Cannabinoid receptor 2 (Homo sapiens, UniProt P34972); test: SAR analysis of agonists of the Cannabinoid Receptor 2 using an Image-Based Assay - Set 3. [Related pubchem assays (depositor defined):AID2013, AID2026]; type: functional
Cannabinoid receptor 2 [11] = target: T8, Cannabinoid receptor 2; test: SAR analysis of antagonists of the Cannabinoid Receptor 2 using an Image-Based Assay - Set 3. [Related pubchem assays (depositor defined):AID2013, AID2026]; type: functional
[12] = target: T9, G-protein coupled receptor 35 (Homo sapiens, UniProt Q9HC97); test: SAR analysis of Antagonists of the GPR35 Receptor using an Image-Based Assay - Set 6. [Related pubchem assays (depositor defined):AID2013, AID2026]; type: functional
Cannabinoid receptor 1 [13] = target: T10, Cannabinoid receptor 1 (Homo sapiens, UniProt P21554); test: SAR analysis of antagonists of the Cannabinoid Receptor 1 using an Image-Based Assay - Set 4. [Related pubchem assays (depositor defined):AID2013, AID2026]; type: functional
Cannabinoid receptor 1 [14] = target: T10, Cannabinoid receptor 1; test: SAR analysis of agonists of the Cannabinoid Receptor 1 using an Image-Based Assay - Set 4. [Related pubchem assays (depositor defined):AID2013, AID2026]; type: functional
[15] = target: G-protein coupled receptor 55 (Homo sapiens, UniProt Q9Y2T6); test: SAR Analysis of Selective Antagonists of GPR55 using an Image-Based Assay - Set 4. [Related pubchem assays (depositor defined):AID2013, AID2026]; type: functional;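 note: antagonism of response to 5 µM lysophosphatidylinositol agonist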
[16] = target: T9, G-protein coupled receptor 35; test: SAR analysis of Agonists of the GPR35 Receptor using an Image-Based Assay - Set 4. [Related pubchem assays (depositor defined):AID2013, AID2026]; type: functional
[17] = viability loss of HPDE-C7K cells – cell-based, fluorescence, HTS, primary screen (AID 431); type: functional; conditions: Homo sapiens
[18] = target: DNA damage-inducible transcript 3 protein (Mus musculus, UniProt P35639); type: functional, Cricetulus griseus
Streptokinase A = target: T11, Streptokinase A (Streptococcus pyogenes serotype M1, UniProt P10520); test: viability-normalized secreted streptokinase activity reduction – plasminogen activation absorbance, OD405, dose response (AID 1914); type: functional, Streptococcus pyogenes M1 GAS;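 note: secreted streptokinase activity via plasminogen activation per viability signal from cell pellet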
T11 sequence (P10520 whole entry): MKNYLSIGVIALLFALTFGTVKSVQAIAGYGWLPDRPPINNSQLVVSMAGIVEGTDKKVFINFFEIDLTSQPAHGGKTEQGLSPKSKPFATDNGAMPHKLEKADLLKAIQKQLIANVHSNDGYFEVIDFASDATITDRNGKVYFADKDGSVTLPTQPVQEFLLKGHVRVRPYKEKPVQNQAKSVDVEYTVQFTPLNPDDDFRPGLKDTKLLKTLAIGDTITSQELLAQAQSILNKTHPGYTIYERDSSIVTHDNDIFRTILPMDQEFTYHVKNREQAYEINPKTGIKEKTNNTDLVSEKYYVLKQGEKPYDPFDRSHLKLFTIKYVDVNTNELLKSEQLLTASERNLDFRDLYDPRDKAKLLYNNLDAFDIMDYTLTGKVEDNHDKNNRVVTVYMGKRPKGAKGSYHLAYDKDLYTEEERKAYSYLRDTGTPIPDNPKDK

Beta-galactosidase = Beta-galactosidase (Escherichia coli, UniProt Q8VNN2); test: Dose response counterscreen for EBI2 assay utilizing the enzyme, b-galactosidase.; type: functional
[19] = HPDE-C7 pancreatic duct cell viability loss – fluorescence, HTS (AID 430); type: functional, cell-based; conditions: Homo sapiens
Streptococcus = test: GAS UMAA2166 growth inhibition – luminescence, BacTiterGlo, counter-screen for streptokinase expression inhibitor project, dose response (AID 1915); type: functional, organism-based;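 note: potency for reduction of bacterial viability or growth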
[20] = test system: Streptococcus sp. 'group A'; test: Streptococcus pyogenes SK(-)GAS viability under kanamycin – luminescence, BacTiterGlo, confirmation, counter-screen for streptokinase expression inhibitor project, dose response (AID 1900); type: functional, organism-based

T10 sequence (P21554 whole entry): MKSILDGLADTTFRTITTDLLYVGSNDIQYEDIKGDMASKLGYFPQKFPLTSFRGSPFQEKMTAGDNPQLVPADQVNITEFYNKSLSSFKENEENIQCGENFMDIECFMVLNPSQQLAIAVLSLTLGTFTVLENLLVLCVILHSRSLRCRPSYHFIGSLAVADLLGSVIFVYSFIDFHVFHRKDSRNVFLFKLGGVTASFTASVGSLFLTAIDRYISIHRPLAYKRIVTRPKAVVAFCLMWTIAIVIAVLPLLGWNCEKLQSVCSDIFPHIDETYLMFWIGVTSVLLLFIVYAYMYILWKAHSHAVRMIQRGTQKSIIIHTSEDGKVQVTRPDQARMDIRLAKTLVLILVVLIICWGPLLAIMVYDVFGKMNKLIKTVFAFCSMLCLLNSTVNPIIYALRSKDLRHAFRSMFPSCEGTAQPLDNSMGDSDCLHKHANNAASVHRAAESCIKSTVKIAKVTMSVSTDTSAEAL
T1 sequence (Q01196 whole entry, the tested form may be a part): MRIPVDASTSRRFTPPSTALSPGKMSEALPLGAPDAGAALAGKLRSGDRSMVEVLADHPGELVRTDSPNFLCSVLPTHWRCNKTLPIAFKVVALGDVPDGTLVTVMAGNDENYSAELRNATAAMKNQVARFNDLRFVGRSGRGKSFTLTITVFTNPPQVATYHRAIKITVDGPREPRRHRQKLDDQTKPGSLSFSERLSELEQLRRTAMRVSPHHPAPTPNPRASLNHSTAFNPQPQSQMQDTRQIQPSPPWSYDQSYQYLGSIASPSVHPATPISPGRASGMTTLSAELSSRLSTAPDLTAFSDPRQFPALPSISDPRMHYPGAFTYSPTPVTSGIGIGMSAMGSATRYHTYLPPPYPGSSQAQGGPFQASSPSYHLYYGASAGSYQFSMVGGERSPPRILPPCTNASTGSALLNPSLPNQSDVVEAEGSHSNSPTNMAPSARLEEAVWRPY
T1 sequence (Q13951 whole entry, the tested form may be a part): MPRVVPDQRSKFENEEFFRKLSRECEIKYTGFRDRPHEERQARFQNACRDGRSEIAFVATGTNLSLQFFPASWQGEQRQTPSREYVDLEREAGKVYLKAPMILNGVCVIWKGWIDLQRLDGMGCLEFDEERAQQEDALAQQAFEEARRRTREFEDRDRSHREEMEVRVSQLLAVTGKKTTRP
T7 sequence (P49327 whole entry): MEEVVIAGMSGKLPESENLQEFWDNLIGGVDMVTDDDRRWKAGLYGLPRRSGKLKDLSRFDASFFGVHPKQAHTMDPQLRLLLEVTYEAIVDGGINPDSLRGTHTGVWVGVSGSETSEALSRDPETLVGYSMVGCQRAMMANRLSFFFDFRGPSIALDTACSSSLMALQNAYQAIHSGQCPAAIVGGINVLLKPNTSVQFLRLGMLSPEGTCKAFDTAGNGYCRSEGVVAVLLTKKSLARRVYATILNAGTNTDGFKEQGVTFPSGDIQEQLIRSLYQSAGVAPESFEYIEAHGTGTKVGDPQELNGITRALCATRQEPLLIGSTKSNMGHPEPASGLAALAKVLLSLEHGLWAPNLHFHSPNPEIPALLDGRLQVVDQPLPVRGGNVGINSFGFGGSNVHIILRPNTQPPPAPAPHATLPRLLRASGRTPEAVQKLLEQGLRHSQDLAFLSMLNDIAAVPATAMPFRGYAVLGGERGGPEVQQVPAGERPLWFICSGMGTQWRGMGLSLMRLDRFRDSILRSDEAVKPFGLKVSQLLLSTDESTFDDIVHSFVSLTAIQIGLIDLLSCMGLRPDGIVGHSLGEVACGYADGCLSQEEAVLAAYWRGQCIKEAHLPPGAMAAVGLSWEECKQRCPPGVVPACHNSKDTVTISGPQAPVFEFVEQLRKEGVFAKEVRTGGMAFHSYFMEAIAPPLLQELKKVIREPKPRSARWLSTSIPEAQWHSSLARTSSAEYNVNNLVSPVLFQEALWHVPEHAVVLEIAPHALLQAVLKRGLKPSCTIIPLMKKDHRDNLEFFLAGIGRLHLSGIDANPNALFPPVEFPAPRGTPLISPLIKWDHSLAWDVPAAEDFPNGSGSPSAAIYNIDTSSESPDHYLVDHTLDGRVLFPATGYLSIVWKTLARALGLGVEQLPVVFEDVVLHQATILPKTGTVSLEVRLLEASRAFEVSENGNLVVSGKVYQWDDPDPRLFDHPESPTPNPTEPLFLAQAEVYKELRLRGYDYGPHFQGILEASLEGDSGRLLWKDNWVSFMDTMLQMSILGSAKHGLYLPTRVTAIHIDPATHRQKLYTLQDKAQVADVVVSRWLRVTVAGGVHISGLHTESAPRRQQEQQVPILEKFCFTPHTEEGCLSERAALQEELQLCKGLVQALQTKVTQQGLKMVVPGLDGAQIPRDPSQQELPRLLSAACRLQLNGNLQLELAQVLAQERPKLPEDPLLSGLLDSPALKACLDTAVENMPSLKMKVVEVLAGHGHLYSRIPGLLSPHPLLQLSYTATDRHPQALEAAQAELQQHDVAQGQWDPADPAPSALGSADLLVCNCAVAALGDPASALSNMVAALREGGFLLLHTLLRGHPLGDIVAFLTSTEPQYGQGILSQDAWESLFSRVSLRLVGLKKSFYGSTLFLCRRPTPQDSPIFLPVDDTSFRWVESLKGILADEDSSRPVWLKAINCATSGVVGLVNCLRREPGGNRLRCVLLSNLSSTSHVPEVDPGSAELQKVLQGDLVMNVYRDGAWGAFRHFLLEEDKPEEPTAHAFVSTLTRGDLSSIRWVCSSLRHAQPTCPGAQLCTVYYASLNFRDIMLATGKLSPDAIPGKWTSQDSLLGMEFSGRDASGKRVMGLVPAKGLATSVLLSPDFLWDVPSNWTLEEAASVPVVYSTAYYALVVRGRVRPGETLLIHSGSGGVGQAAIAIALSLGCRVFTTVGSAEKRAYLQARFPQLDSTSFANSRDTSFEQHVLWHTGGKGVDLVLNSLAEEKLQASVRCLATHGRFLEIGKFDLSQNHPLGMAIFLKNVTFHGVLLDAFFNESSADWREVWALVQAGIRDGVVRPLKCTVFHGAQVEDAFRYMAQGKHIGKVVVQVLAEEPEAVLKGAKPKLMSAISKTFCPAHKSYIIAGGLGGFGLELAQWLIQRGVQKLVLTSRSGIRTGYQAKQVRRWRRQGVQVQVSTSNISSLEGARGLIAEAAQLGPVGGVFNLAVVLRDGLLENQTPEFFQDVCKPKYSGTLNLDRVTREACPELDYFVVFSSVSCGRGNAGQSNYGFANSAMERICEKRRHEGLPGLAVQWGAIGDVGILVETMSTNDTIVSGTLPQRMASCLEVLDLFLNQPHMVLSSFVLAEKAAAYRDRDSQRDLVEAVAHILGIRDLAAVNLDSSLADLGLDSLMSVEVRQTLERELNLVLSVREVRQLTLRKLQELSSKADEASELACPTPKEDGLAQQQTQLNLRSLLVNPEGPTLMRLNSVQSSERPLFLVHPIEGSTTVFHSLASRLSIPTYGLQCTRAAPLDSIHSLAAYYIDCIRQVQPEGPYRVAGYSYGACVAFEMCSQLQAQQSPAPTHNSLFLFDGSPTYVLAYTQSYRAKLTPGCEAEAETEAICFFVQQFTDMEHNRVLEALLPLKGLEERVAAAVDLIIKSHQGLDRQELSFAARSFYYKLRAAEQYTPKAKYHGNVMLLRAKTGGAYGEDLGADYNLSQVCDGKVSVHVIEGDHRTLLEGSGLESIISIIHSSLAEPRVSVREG
T9 sequence (Q9HC97 whole entry): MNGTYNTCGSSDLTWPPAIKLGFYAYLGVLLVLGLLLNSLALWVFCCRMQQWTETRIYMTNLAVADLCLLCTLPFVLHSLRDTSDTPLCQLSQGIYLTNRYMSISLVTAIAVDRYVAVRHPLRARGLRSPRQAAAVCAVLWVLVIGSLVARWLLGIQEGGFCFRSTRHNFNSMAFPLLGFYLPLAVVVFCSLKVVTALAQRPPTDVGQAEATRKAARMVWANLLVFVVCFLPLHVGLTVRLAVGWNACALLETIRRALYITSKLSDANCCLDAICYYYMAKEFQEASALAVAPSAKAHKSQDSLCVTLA
T8 sequence (P34972 whole entry): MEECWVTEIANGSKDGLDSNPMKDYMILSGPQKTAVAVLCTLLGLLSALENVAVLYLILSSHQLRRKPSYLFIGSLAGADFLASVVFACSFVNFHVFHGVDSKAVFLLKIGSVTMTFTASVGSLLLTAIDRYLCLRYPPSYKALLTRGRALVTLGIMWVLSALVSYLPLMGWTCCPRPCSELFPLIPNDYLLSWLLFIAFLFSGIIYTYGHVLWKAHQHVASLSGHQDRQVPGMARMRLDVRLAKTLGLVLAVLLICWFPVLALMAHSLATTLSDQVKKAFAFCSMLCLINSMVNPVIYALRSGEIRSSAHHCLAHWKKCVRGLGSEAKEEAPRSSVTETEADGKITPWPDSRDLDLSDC
Chain of G-protein coupled receptor 55 (Q9Y2T6 whole entry): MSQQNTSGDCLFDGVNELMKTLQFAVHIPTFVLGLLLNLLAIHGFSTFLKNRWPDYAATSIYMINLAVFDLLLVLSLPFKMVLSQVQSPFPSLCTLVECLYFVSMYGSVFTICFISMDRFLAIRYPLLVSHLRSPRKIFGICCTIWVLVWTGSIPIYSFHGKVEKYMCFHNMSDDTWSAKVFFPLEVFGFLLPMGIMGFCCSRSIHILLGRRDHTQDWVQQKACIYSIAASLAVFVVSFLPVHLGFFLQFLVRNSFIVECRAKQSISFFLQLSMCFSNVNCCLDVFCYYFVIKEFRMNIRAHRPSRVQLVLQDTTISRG
Chain of DNA damage-inducible transcript 3 protein (P35639 whole entry): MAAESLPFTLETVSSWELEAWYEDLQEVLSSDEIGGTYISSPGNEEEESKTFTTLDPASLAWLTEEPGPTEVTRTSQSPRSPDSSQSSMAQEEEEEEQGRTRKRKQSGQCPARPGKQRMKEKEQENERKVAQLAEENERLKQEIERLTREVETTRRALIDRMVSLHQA

CC1=CC(c2ccc(Cl)cc2)N2NC(NS(=O)(=O)c3ccc(C)cc3)=NC2=N1 (stereo not drawn)
IC50 [1]: 23.6 µM (active)
IC50 [2]: 31.5 µM (active)
IC50 (Aminopeptidase N): 104 µM (active)

OC1CN=C2Sc3ccccc3N2C1 (stereo not drawn)
IC50 [3]: 15.1 µM (active)
EC50 [4]: > 100 µM (inactive)

CCN1C(=O)/C(=C/c2ccc(N3CCCC3)cc2)NC1=S
EC50 (Mucolipin-3): 2.43 µM (active)
EC50 (Ion channel NompC): 1.28 µM (active)

Cc1ccc(C(=O)NC(C)c2ccc(-n3ccnc3)cc2)cc1S(=O)(=O)N1CCOCC1 (stereo not drawn)
IC50 [5]: 17.3 µM (active)
IC50 (Bcl-2-related protein A1): > 20 µM (inactive)
IC50 [6]: 11.5 µM (active)

COC(=O)N1C(=O)[C@](c2ccc(OC)cc2)(C(C)C)N1C(=O)OC
IC50 (Fatty acid synthase [7]): 2.06 µM (active)
IC50 (Fatty acid synthase [8]): 3.86 µM (active)
IC50 [9]: 0.069 µM (active)

COC(=O)c1ccc(C(C(=O)NC2CCCCC2)N(CCN2CCOCC2)C(=O)Cc2cccs2)cc1 (stereo not drawn)
IC50 (Coagulation factor XII): > 50 µM (inactive)

Cc1ccc(-n2cc3c(-c4ccccc4)nnc(C)c3n2)cc1
EC50 (Cannabinoid receptor 2 [10]): > 32 µM (inactive)
IC50 (Cannabinoid receptor 2 [11]): > 32 µM (inactive)
IC50 [12]: > 32 µM (inactive)
IC50 (Cannabinoid receptor 1 [13]): 8.66 µM (active)
EC50 (Cannabinoid receptor 1 [14]): > 32 µM (inactive)
IC50 [15]: 6.89 µM (active)
EC50 [16]: > 32 µM (inactive)

Nc1c(S(=O)(=O)c2ccccc2)c2nc3ccccc3nc2n1/N=C/c1cccc(O)c1
EC50 [17]: 2.83 µM (active)
Absolute IC50 (CHOP) [18]: 10 µM
EC50 (Streptokinase A): 23.6 µM (active)
IC50 (Beta-galactosidase): > 80 µM (inactive)
EC50 [19]: 2.92 µM (active)
EC50 (Streptococcus): 75.4 µM (active)
EC50 [20]: 7.72 µM (active)

— ChEMBL document CHEMBL1201862, “PubChem BioAssay data set” (2004)
